Assay results as given in patent US10487362B2, “Methods for diagnosing cancer based on small nucleolar RNA HBII-52” (Health Research, Inc., priority 2013, dated 2019).
Entries after “also recorded” stand apart in the source; their conditions may differ.

Key:
TRAMP-C2G cells = assay: Cell viability of TRAMP-C2G stable cell lines (Cell-Titer Fluor, 72 h growth assay); assay type: cell-based, mouse; conditions: 72 h culture; for influence on the effect of MBII-52 or SB 242,084 on cell viability: TRAMP-C2G cells
Method: FIG. 10. MBII-52 was stably overexpressed (>60-fold overexpression) in TRAMP-C2G cells from the pSilencer CMV 4.1 vector. Cell viability was measured (n=5, error bars are SEM) after 72 h culture using Cell-Titer Fluor cell viability assay and normalized to scramble-transfected, vehicle-treated control. One-sample t-tests were performed to compare experimental groups with scramble/vehicle control. Two-tailed t-tests were used to compare the two SB 242,084 treatment groups with each other. * indicated p<0.05 for either test. MBII-52 increases cell viability, while SB 242,084 inhibits it.
To test the hypothesis that HB/MBII-52 can activate 5-HT2cR and promote cancer progression stable cell lines were generated from TRAMP C2D and C2G cells that overexpress MBII-52 from pSilencer 4.1 CMV vector along with control cells expressing a scrambled RNA that has no homology to the mouse or human genome.
Numerous downstream pathways activated by 5-HT2cR have been studied in neuronal cell lines with a focus on neurological development and disease. The pathways relevant to this disclosure are Erk, PI3-K/Akt and RhoA (36,39). Each has previously been studied and targeted in PCa and other cancers. Activation of these pathways during PCa progression or in vitro can directly propagate a transition to malignancy. For example, Erk upregulates hypoxia inducible factor 1 alpha (HIF1α) and therefore vascular endothelial growth factor (Vegf) in response to hypoxia in rats (40). Vegf secretion also appears to be regulated by Erk in LNCaP cell lines (41). Erk is also able to transactivate the androgen receptor (AR) independent of androgen, by phosphorylating steroid receptor co-activator-1 (SRC-1), which then binds AR resulting in ligand-independent activation of AR. Therefore, Erk directly contributes to androgen-independence (41). […] Indeed, stable cell lines overexpressing MBII-52 appeared more proliferative then scramble control stable cell lines in a 72 h growth assay, after which viability was measured using Cell-Titer Fluor Assay (n=5) (FIG. 10).

[1] = tested on: Human Prostate cancer cell lines; assay: Cell viability of human prostate cancer cell lines treated for 72 h; assay type: cell-based; conditions: 72 h treatment, 3 independent experiments
Method: FIG. 11. Human Prostate cancer cell lines were treated with SB 242,084 for 72 h. […] Data is the average of 3 independent experiments with error bars indicating SEM.
(§1) Our tests indicate that SB 242,084 is growth-inhibitory in human PCa cell lines (FIG. 11).

PC3 cells = assay: Growth inhibition under serum starvation, PC3; assay type: cell-based, human; conditions: PC3, serum starvation vs serum
Source text: (§2) FIG. 12. […] Data is representative of multiple independent experiments.
as §1

LNCaP-C4-2 cells = assay: Growth inhibition under serum starvation, LNCaP-C4-2; assay type: cell-based, human; conditions: LNCaP-C4-2, serum starvation vs serum
Source text: as §2, §1

5-HT2cR [2] = molecular target: T1, 5-HT2cR (Homo sapiens, UniProt P28335); conditions: cited from earlier work
T1 sequence (P28335 33-458): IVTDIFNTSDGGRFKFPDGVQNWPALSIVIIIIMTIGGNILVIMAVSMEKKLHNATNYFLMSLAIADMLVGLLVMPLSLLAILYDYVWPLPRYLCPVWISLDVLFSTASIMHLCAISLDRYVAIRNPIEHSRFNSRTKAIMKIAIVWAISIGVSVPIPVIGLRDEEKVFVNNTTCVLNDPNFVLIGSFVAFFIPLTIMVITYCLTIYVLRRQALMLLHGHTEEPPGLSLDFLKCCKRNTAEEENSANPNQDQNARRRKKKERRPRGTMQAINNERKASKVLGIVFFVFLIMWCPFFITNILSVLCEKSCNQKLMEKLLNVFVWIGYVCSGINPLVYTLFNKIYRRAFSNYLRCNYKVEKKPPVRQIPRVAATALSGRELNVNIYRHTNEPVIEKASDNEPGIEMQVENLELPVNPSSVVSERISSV

[3] = compared with SB206,553; cited from earlier work
5-HT2cR [4] = molecular target: T1, 5-HT2cR; conditions: in vitro and in vivo; cited from earlier work
Erk = conditions: cited from earlier work
MBII-52 = conditions: C2G cells, serum starvation 72 h, DHT supplementation
Source text: Serum starvation induces NED of PCa cell lines (25). […] Furthermore, NED is associated with CR-PCa in vivo, supporting the importance of factors that induce NED as initiators of transition to androgen-independence (26).

DU145 clones DU6 and DU2 = assay: Cell viability of DU145 HBII-52 clones in response to 5-HT; assay type: cell-based, human; conditions: high concentrations; HBII-52 overexpressing DU6 compared to low expressing DU2; 3 independent experiments
Source text: FIG. 17. Overexpression of HBII-52 affects cell viability in response to 5-HT treatment. […] Data are represented as the average+/−SEM of 3 independent experiments

Row | SMILES | cell viability (TRAMP-C2G cells; scramble and MBII-52 overexpressing TRAMP-C2G cells, n=5) | cell viability / growth inhibition [1] | growth inhibition upon serum starvation (PC3 cells) | growth inhibition upon serum starvation (LNCaP-C4-2 cells) | potency relative to SB 206,553 (5-HT2cR [2]) | selectivity for 5-HT2cR over 5-HT2aR (5-HT2cR [2]) | selectivity for 5-HT2cR over 5-HT2bR (5-HT2cR [2]) | resistance to metabolic methylation [3] | antagonist activity (5-HT2cR [4]) | activation of downstream targets including Erk (Erk) | influence on the effect of MBII-52 or SB 242,084 on cell viability (TRAMP-C2G cells) | MBII-52 expression increase caused by serum starvation (MBII-52) | cytotoxic response (cell viability) (DU145 clones DU6 and DU2)
1 | Cc1cc2c(cc1Cl)N(C(=O)Nc1ccc(Oc3cccnc3C)nc1)CC2 [SB 242,084] | inhibits; also recorded: effective in both scramble and MBII-52 overexpressing cells | dose-dependent decrease in cell viability levels; also recorded: growth-inhibitory | significantly (p<0.05) further improved | significantly (p<0.05) further improved | increased potency | greater than 100 fold | greater than 100 fold | more resistant to the metabolic methylation than SB206,553 | potent antagonist activity | inhibits activation |  |  | 
2 | C[C@]12CCC(=O)C[C@@H]1CC[C@@H]1[C@@H]2CC[C@]2(C)[C@@H](O)CC[C@@H]12 [DHT, 5α-dihydrotestosterone] |  |  |  |  |  |  |  |  |  |  | Neither DHT nor 5-HT appear to have much influence | almost completely block the increase in MBII-52; also recorded: abrogates the observed upregulation of MBII-52 | 
3 | NCCc1c[nH]c2ccc(O)cc12 [5-HT, serotonin] |  |  |  |  |  |  |  |  |  |  | Neither DHT nor 5-HT appear to have much influence |  | increased cytotoxic response
